Measured values taken from the supplement of paper PMC10307832.

Assays:
Assay in all cases: relative viability (nuclei count vs DMSO), 5 days (fraction); higher = more cells survive
[1] = compound: CC1=NN=C(O1)C2=NN=C(C=C2)N3CCC(CC3)OC4=C(C=CC(=C4)F)Cl + COc1cc2c(Oc3ccc(NC(=O)C4(C(=O)Nc5ccc(F)cc5)CC4)cc3F)ccnc2cc1OCCCN1CCOCC1 [Foretinib] (partner 0.25 µM)
In short: (§1)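 A single step with final 0.05% Triton X-100, 1% formaldehyde and 1 ug/ml Hoechst fixed the cells and stained nuclei 5 days after treatment. Lung cancer cell lines in 1536-well plates had been treated by pin tool the day after seeding with one drug alone or a fixed anchor-drug dose plus five library-drug doses (not always all listed) in √10 steps, and nuclei were counted on 4× images. Relative viability is the ratio of nuclei in treated wells to nuclei in vehicle wells, taken as the median of duplicate plates.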

[2] = compound: CC(C)C[C@@H](C(=O)N[C@H](C(=O)OC1CCCC1)c1ccccc1)[C@H](O)C(=O)NO [Tosedostat] + Cc1nc(Nc2ncc(C(=O)Nc3c(C)cccc3Cl)s2)cc(N2CCN(CCO)CC2)n1 [Dasatinib] (partner 0.075 µM)
In short: as §1

[3] = compound: CC1=NN=C(O1)C2=NN=C(C=C2)N3CCC(CC3)OC4=C(C=CC(=C4)F)Cl + N=C(N)NC(=N)NCCc1ccccc1 [Phenformin] (partner 250 µM)
In short: as §1

[4] = compound: CC(C)C[C@@H](C(=O)N[C@H](C(=O)OC1CCCC1)c1ccccc1)[C@H](O)C(=O)NO [Tosedostat] + Cc1nc(NC(=O)N2CCC[C@H]2C(N)=O)sc1-c1ccnc(C(C)(C)C(F)(F)F)c1 [Alpelisib] (partner 2 µM)
In short: as §1

Cell Line	relative viability ([1]; first compound 0.253 µM)	relative viability ([1]; first compound 0.8 µM)	relative viability ([1]; first compound 2.53 µM)	relative viability ([1]; first compound 8 µM)	relative viability ([2]; first compound 0.02 µM)	relative viability ([2]; first compound 0.06325 µM)	relative viability ([2]; first compound 0.2 µM)	relative viability ([2]; first compound 0.6325 µM)	relative viability ([2]; first compound 2 µM)	relative viability ([3]; first compound 0.253 µM)	relative viability ([3]; first compound 0.8 µM)	relative viability ([3]; first compound 2.53 µM)	relative viability ([3]; first compound 8 µM)	relative viability ([4]; first compound 0.02 µM)	relative viability ([4]; first compound 0.06325 µM)	relative viability ([4]; first compound 0.2 µM)	relative viability ([4]; first compound 0.6325 µM)	relative viability ([4]; first compound 2 µM)
201T	0.607	0.758	0.661	0.73	0.566	0.632	0.635	0.717	0.553	0.38	0.436	0.46	0.443	0.967	1.08	1.07	1.21	1.15
A549	0.746	0.545	0.464	0.53						0.158	0.0878	0.14	0.147	0.753	0.714	0.683	0.709	0.526
A-427	1.02		0.998	0.871	0.646	0.762	0.733	0.712	0.692	0.285		0.278	0.258	1.1	1.09	1.12	1.12	0.983
ABC-1	0.601	0.439	0.578	0.644	0.632	0.598	0.519	0.563	0.481	0.197	0.224	0.291	0.276	1.05	0.864	1.08	0.843	0.771
BEN	0.679	0.7	0.665	0.541	0.348	0.348	0.39	0.446	0.344	0.25	0.265	0.267	0.301	1.09	1.01	1.15	1.28	1.26
CAL-12T	0.965	0.964	0.879	0.777	0.316	0.489	0.472	0.381	0.217	0.585	0.519	0.488	0.416	1.28	1.14	1.3	0.988	0.872
COR-L23	0.901	0.836	0.869	0.672	0.546	0.469	0.495	0.381	0.332	0.423	0.385	0.425	0.363	0.871	0.727	0.746	0.694	0.655
COR-L 105	0.994	1.06	1.12	1.08	0.348	0.37	0.365	0.323	0.298	0.513	0.475	0.568	0.642	0.904	0.849	1.17	0.901	0.753
Calu-6	0.602	0.597	0.517	0.573										1.18	0.883	0.91	0.689	0.597
ChaGo-K-1	0.773	0.709	0.785	0.739	0.662	0.567	0.587	0.535	0.394	0.471	0.373	0.545	0.381					
EBC-1	0.0917	0.0957	0.103	0.0946										0.771	0.87	0.711	0.552	0.541
EKVX	0.41	0.382	0.382	0.36	0.586	0.565	0.548	0.588	0.512	0.211	0.223	0.236	0.227	0.868	0.86	0.835	0.838	0.87
EMC-BAC-2	0.968	0.95	0.89	0.98	0.317	0.356	0.343	0.371	0.311	0.594	0.479	0.495	0.517	0.722	0.725	0.73	0.737	0.682
EPLC-272H	0.713	0.604	0.638	0.637	0.363	0.353	0.316	0.299	0.177	0.315	0.279	0.309	0.294	0.777	0.999	0.719	0.747	0.505
H3255	0.793	0.644	0.783	0.673	0.278	0.35	0.347	0.429	0.33	0.372	0.316	0.354	0.398	0.666	0.642	0.589	0.568	0.663
HARA	0.538	0.289	0.317	0.273	0.304	0.282	0.235	0.234	0.195	0.306	0.211	0.334	0.266	0.887	0.839	0.875	0.716	0.74
HCC-15	0.538	0.476	0.405	0.446	0.64	0.625	0.578	0.559	0.462	0.441	0.396	0.427	0.428	0.848	0.934	0.863	0.808	0.651
HCC-44										0.267	0.167	0.178	0.157	0.684	0.874	0.767	0.886	0.544
HCC-78	0.465	0.51	0.467	0.516	0.317	0.439	0.37	0.374	0.493	0.619	0.59	0.541	0.497	0.294	0.338	0.257	0.336	0.454
HCC-366	0.46	0.574	0.466	0.343	0.723	0.594	0.665	0.556	0.646	0.286	0.285	0.309	0.288	0.331	0.357	0.376	0.382	0.342
HCC-827	0.381	0.239	0.353	0.318	0.308	0.34	0.301	0.377	0.288	0.388	0.258	0.354	0.36	0.826	0.934	1.02	0.842	0.875

Cell Line	relative viability ([1]; first compound 0.253 µM)	relative viability ([1]; first compound 0.8 µM)	relative viability ([1]; first compound 2.53 µM)	relative viability ([1]; first compound 8 µM)	relative viability ([2]; first compound 0.02 µM)	relative viability ([2]; first compound 0.06325 µM)	relative viability ([2]; first compound 0.2 µM)	relative viability ([2]; first compound 0.6325 µM)	relative viability ([2]; first compound 2 µM)	relative viability ([3]; first compound 0.253 µM)	relative viability ([3]; first compound 0.8 µM)	relative viability ([3]; first compound 2.53 µM)	relative viability ([3]; first compound 8 µM)	relative viability ([4]; first compound 0.02 µM)	relative viability ([4]; first compound 0.06325 µM)	relative viability ([4]; first compound 0.2 µM)	relative viability ([4]; first compound 0.6325 µM)	relative viability ([4]; first compound 2 µM)
HOP-62	0.806	0.833	0.806	0.543	0.678	0.628	0.665	0.685	0.57	0.592	0.352	0.411	0.349	0.92	1.01	0.697	0.984	0.744
IA-LM	0.164	0.158	0.171	0.167										0.735	0.845	0.714	0.656	0.617
LC-2-ad	0.66	0.634	0.623	0.507	0.865	0.51	0.675	0.602	0.337	0.496	0.489	0.51	0.472	0.932	0.885	0.852	0.889	0.74
LCLC-97TM1	0.481	0.439	0.433	0.381	0.901	0.988	0.811	0.819	0.915	0.501	0.396	0.427	0.437	0.199			0.247	0.211
LCLC-103H	0.579	0.596	0.494	0.582	0.49	0.523	0.503	0.366	0.341	0.36	0.344	0.335	0.225	0.896	0.95	0.948	1.11	1.07
LK-2	1.11	1.05	1.45	1.5	0.29	0.275	0.296	0.4	0.267	0.576	0.433	0.661	0.38	1.55	1.03	1.13	1.27	1.11
LOU-NH91	0.896	0.847	0.927	0.9	0.6	0.584	0.568	0.51	0.42	0.64	0.598	0.69	0.679	0.695	0.704	0.741	0.706	0.674
LU99A	0.826	0.868	0.836	0.742	0.517	0.495	0.506	0.424	0.413	0.885	0.822	0.821	0.71	0.633	0.445	0.501	0.486	0.477
LXF-289	0.692	0.671	0.66	0.563	0.199	0.248	0.244	0.225	0.184	0.509	0.393	0.504	0.465	1.03	1.05	1.03	1.07	1.1
NCI-H23	0.981		0.792	0.841	0.785	0.817	0.741	0.662	0.455	0.829		0.729	0.709	0.615	0.745	0.536	0.513	0.538
NCI-H322M	0.937	0.908	1.03	0.95	0.272	0.256	0.268	0.279	0.246	0.759	0.742	0.846	0.731	0.726	0.902	0.537	0.755	0.53
NCI-H358	0.512	0.393	0.512	0.41	0.169	0.183	0.208	0.211	0.208	0.369	0.304	0.359	0.305	0.881	0.824	0.688	0.538	0.442
NCI-H522					0.901	0.982	0.858	0.843	0.945	0.679	0.632	0.855	0.526					
NCI-H1299	1.09	1.08	1.05	1.02										1.13	1.02	1.03	1.03	0.906
NCI-H1623	0.717	0.669	0.771	0.781	0.585	0.542	0.607	0.552	0.601	0.568	0.545	0.627	0.574					
NCI-H1650		0.928	0.998	0.852	0.329	0.362	0.346	0.448	0.311		0.403	0.445	0.453					
NCI-H1703		0.438	0.394	0.478										0.265	0.274	0.302	0.329	0.31
NCI-H1792					0.777	0.756	0.743	0.79	0.691	0.294	0.416	0.264	0.384	0.761	0.745	0.649	0.602	0.67
NCI-H2342	0.671	0.627	0.684	0.545	0.306	0.367	0.321	0.275	0.295	0.474	0.503	0.492	0.362					
SW 900			0.822	0.73	0.54	0.485	0.714	0.875	0.416			0.827	0.562					
